{
  "source": "patent US20080119571A1",
  "about": "“COMPOSITIONS AND METHODS TO ENHANCE REVERSE CHOLESTEROL TRANSPORT” (REDDY US THERAPEUTICS, INC., priority 2006, published 2008)",
  "key": {"ABCA1 [1]": {"test_system": "ABCA1", "assay": "ABCA1 expression in HepG2 liver cells, real time PCR", "format": "cell-based, human", "conditions": "HepG2, treated overnight", "experimental": "(§1) The hepatoma cell line HepG2 are frequently used as in vitro models of liver cells. They are easy to culture and retain many properties of liver cells including expression of various genes involved in lipid metabolism.\n(§2) This example illustrates the effect of compound A on genes associated with RCT in HepG2 cells.\n(§3) Human HepG2 cells were cultured in DMEM containing 4500 mg glucose/L (ATCC) supplemented with 10% fetal bovine serum (FBS), penicillin (100 U/ml), and streptomycin (100 μg/ml) in a humidified atmosphere (5% CO2 in air) at 37° C. Cells were plated onto 12 well dishes and cultured in low serum (0.5% FBS) for experiments. Cells were treated with either vehicle (DMSO) or the test compound overnight and used for RNA isolation. Briefly, cells were lysed in 300 uL of lysis buffer (Qiagen) and placed in the TissueLyser (Qiagen) for 3 minutes. Samples were then processed as described by the RNeasy mini kit. RNA was then verified and quantified using the Agilent RNA 600 Nano Assay Labchip® system, and real time PCR was performed to quantitate gene expression using validated primer sets from SuperArray. The results were illustrated in FIGS. 8-9."}, "ABCA1 [2]": {"test_system": "ABCA1", "assay": "ABCA1 expression in normal animals (rat liver), real time PCR", "format": "in vivo", "source_text": "(§4) After 7 days of treatment RCT pathway genes were quantitated using real time PCR."}, "SR-B1 [3]": {"test_system": "SR-B1", "assay": "SR-B1 gene expression in LDL-r null mouse liver, real time PCR", "format": "in vivo", "experimental": "(§5) To determine if a test compound was capable of upregulating these three RCT pathway genes, LDL-r mice were treated with vehicle alone (control) or vehicle containing a defined amount of a test compound termed, “compound A”.\n(§6) LDL-r mice were chosen because they are prone to develop atherosclerosis. After 7 days of treatment, the three RCT pathway genes were quantitated using real time PCR. […] Thus, compound A coordinately up regulated the three RCT pathway genes, namely ABCA1, LCAT, and SRB1.\n(§7) This example illustrates the effect of compound A on HDL and the ABCA1, SR-B1 and LCAT genes associated with RCT in LDL-receptor (LDLr) null mice in a short term model.\n(§8) Eight-weeks-old LDLr mice (Jackson Laboratories, Bar Harbor, Me.), were used for this Example. Mice were distributed into two groups of 8 mice each. One group received vehicle containing carboxymethyl cellulose and Tween-80 (Sigma Chemical Co.), and the other group received a daily dose of compound A at 25 mg/kg. […]\n(§9) Next, liver and aorta samples from vehicle and compound A treated mice were removed, flash frozen in liquid nitrogen and subsequently used for RNA isolation. […] RNA was then verified and quantified using the Agilent RNA 600 Nano Assay Labchip® system, and real time PCR was performed to quantitate the gene expression of SR-B1, ABCA1 and LCAT using validated primer sets from SuperArray. […]"}, "atherosclerotic lesions": {"test_system": "atherosclerotic lesions", "assay": "Atherosclerotic lesion area in LDLr null mice on Western Diet, long term model", "format": "in vivo, mouse", "conditions": "high fat diet, 25 mg/kg daily, 16 weeks", "source_text": "The atheroprotective effects of HDL to a large extent are attributed to its ability to remove cholesterol from macrophages present in atherosclerotic lesions to transport them to liver for excretion into bile. LDLr null mice develop atherosclerosis when fed a high fat diet. […] This example illustrates the effect of compound A on HDL and atherosclerosis in LDLr null mice in a long term model. Eight-weeks-old LDLr null mice (Jackson Laboratories, Bar Harbor, Me.), were used for these studies. Two groups of 8 mice each received a Western Diet (Research Diet incorporated, New Brunswick, N.J.; D12079B containing 0.1% cholesterol) for 2 weeks. Plasma samples were collected and used for lipid analysis. Mice were then distributed into two groups, one group received vehicle containing carboxymethyl cellulose and Tween-80 (Sigma Chemical Co.), and the other group received a daily dose of compound A at 25 mg/kg. Both groups were continued on the Western Diet for another 16 weeks. At the end of the 16 weeks, the mice were euthanized by CO2, and whole aortas (from aortic sinus to the beginning of iliac aorta) were isolated, and fixed in 10% paraformaldehyde. […] Images of whole aortas were obtained by microscopic digital camera, and the lesion area was determined by computer-assisted morphometry (Image Pro, Media cybermetics) as percentages of coverage in whole aorta. […]"}, "SR-B1 [4]": {"test_system": "SR-B1", "assay": "SR-B1 expression in normal animals (rat liver), real time PCR", "format": "in vivo", "source_text": "as §4"}, "[5]": {"assay": "Plasma HDL levels in LDLr null mice, short term model", "format": "in vivo, mouse", "conditions": "7-day treatment", "source_text": "Upregulation of ABCA1 and LCAT also should result in the formation of HDL particles. Following 7-day treatment, compound A increased HDL levels by greater than 50% (FIG. 4).\nas §7\nEight-weeks-old LDLr mice (Jackson Laboratories, Bar Harbor, Me.), were used for this Example. Mice were distributed into two groups of 8 mice each. One group received vehicle containing carboxymethyl cellulose and Tween-80 (Sigma Chemical Co.), and the other group received a daily dose of compound A at 25 mg/kg.\n(§10) After one week, plasma samples were collected and used for HDL determination. Mice were euthanized by CO2, and aorta and liver samples were collected for RNA isolation."}, "ABCA1 [6]": {"test_system": "ABCA1", "assay": "ABCA1 gene expression in LDL-r null mouse liver, real time PCR", "format": "in vivo", "experimental": "as §5, §6, §7\nEight-weeks-old LDLr mice (Jackson Laboratories, Bar Harbor, Me.), were used for this Example. Mice were distributed into two groups of 8 mice each. […]\nas §10, §9"}, "LCAT": {"test_system": "LCAT", "assay": "LCAT gene expression in LDL-r null mouse liver, real time PCR", "format": "in vivo", "experimental": "as §5, §6, §7, §8, §9"}, "SRB1": {"test_system": "SRB1", "assay": "SRB1 expression in HepG2 liver cells, real time PCR", "format": "cell-based, human", "conditions": "HepG2, treated overnight", "experimental": "as §1, §2, §3"}, "CAD": {"test_system": "CAD", "conditions": "4081 asymptomatic middle-aged men with primary dyslipidemia, 5 years; cited from earlier work"}, "[7]": {"conditions": "normal animals, 10 and 25 mg/kg, 7 days of treatment"}, "[8]": {"conditions": "LDL-r mice, 10 and 25 mg/kg, 7 days of treatment, liver"}},
  "note": "Entries after “also recorded” stand apart in the source; their conditions may differ.",
  "data": [
    {"compound": "CC(=O)c1ccc(Nc2nc(-c3ccccc3)cc(N3CCC(O)CC3)n2)cc1", "note": "[compound A]", "values": [
      {"measurement": "ABCA1 expression in liver cells", "setting": "ABCA1 [1]", "value": "induces"},
      {"measurement": "ABCA1 expression in liver cells", "setting": "ABCA1 [1]; listed as compound of Formula I", "value": "capable of increasing"},
      {"measurement": "ABCA1 expression in rat liver", "setting": "ABCA1 [2]", "value": "induces"},
      {"measurement": "increase in ABCA1 expression compared to vehicle treated animals", "setting": "ABCA1 [2]; [7]", "value": "2-4 fold"},
      {"measurement": "SRB1 expression in LDL-r null mouse liver", "setting": "SR-B1 [3]", "value": "induces"},
      {"measurement": "increase in SR-B1 expression compared to vehicle treated animals", "setting": "SR-B1 [3]; [8]", "value": "2-2.5 fold"},
      {"measurement": "effect on atherosclerotic lesions", "setting": "atherosclerotic lesions", "value": "inhibits atherosclerosis development; also recorded: significant decrease"},
      {"measurement": "SRB1 expression in rat liver", "setting": "SR-B1 [4]", "value": "induces"},
      {"measurement": "increase in SR-B1 expression compared to vehicle treated animals", "setting": "SR-B1 [4]; [7]", "value": "2-4 fold"},
      {"measurement": "increase in HDL levels", "setting": "[5]", "value": "greater than 50%"},
      {"measurement": "ABCA1 expression in LDL-r null mouse liver", "setting": "ABCA1 [6]", "value": "induces"},
      {"measurement": "increase in ABCA1 expression compared to vehicle treated animals", "setting": "ABCA1 [6]; [8]", "value": "2-3 fold"},
      {"measurement": "LCAT expression in LDL-r null mouse liver", "setting": "LCAT", "value": "induces"},
      {"measurement": "increase in LCAT expression", "setting": "LCAT; LDL-r mice, 7 days of treatment, liver", "value": "30-90%"},
      {"measurement": "SRB1 expression in liver cells", "setting": "SRB1", "value": "capable of increasing"}
    ]},
    {"compound": "Cc1ccc(C)c(OCCCC(C)(C)C(=O)O)c1", "note": "[gemfibrozil]", "values": [
      {"measurement": "decrease in CAD", "setting": "CAD", "value": 34, "unit": "%"}
    ]}
  ]
}
